According to patent publication US11771738B2 (Zoetis Services LLC, priority 2018, dated 2023):
Where two headings read alike, the source gives them in different places. Marks after values point to notes of the source that are not given here.

Columns and labels:
Assay type in all cases: cell-based
[1] = test system: third stage larvae of Haemonchus contortus; assay: Haemonchus contortus, Larvae Stage 3 (HcL3) In Vitro Assay; details: for minimal effective concentration: Haemonchus contortus, 96 h
[2] = test system: microfilariae of Dirofilaria immitis; assay: Dirofilaria immitis, Microfilaria (DiMf) In Vitro Assay; details: for minimal effective concentration: Dirofilaria immitis, 72 h, read-out: DiMf MED, Minimum Effective Dose, D. immitis microfilariae motility, in vitro
D. immitis L4 larvae = assay: Dirofilaria immitis, L4 Stage (DiL4) In Vitro Assay; details: for minimal effective concentration: Dirofilaria immitis, 72 h, read-out: DiL4 MED, Minimum Effective Dose, D. immitis L4 larvae motility, in vitro; for DiMf/DiL4: larval stage selectivity, ratio of DiMf MED to DiL4 MED
[3] = read-out: HcL3 MED, Haemonchus contortus third stage larvae in vitro, class mark appended to the Ex # in Table 3
[4] = read-out: HcL3 MED, Minimum Effective Dose, H. contortus third stage larvae, approximately 96 hours
[5] = read-out: HcL3 MED, approximately 96 hours incubation, multiple-resistant field isolate

Compound	minimal effective concentration [1, 3] [µM]	minimal effective concentration [1, 4] [µM]	minimal effective concentration [1, 5] [µM]	minimal effective concentration [2] [µM]	minimal effective concentration (D. immitis L4 larvae) [µM]	DiMf/DiL4 (D. immitis L4 larvae)	HcL3 MED ([1]; Haemonchus contortus third stage larvae in vitro, class mark appended to the Ex # in Table 3)	HcL3 MED ([1]; Minimum Effective Dose, H. contortus third stage larvae, approximately 96 hours) [µM]	DiMf MED ([2]; Minimum Effective Dose, D. immitis microfilariae motility, in vitro) [nM]	DiL4 MED (D. immitis L4 larvae; Minimum Effective Dose, D. immitis L4 larvae motility, in vitro) [nM]	minimal effective concentration ([1]; read-out: HcL3 MED (symbol after Ex#), approximately 96 hours incubation, multiple-resistant field isolate) [µM]
COc1cccc(Cc2ccc(C[C@H]3OC(=O)[C@H](CC(C)C)N(C)C(=O)[C@@H](C)OC(=O)[C@H](CC(C)C)N(C)C(=O)[C@@H](Cc4ccc(Cc5cccc(OC)n5)cc4)OC(=O)[C@H](CC(C)C)N(C)C(=O)[C@@H](C)OC(=O)[C@H](CC(C)C)N(C)C3=O)cc2)n1 [Example 3-69, (3S,6R,9S,12R,15S,18R,21S,24R)-3,9,15,21-tetraisobutyl-6,18-bis(4-((6-methoxypyridin-2-yl)methyl)benzyl)-4,10,12,16,22,24-hexamethyl-1,7,13,19-tetraoxa-4,10,16,22-tetraazacyclotetracosan-2,5,8,11,14,17,20,23-octaone]	< 1	0.5	≤ 1	0.03	0.0007	42.9	–	–	–	–	–
COc1cccnc1Cc1ccc(C[C@H]2OC(=O)[C@H](CC(C)C)N(C)C(=O)[C@@H](C)OC(=O)[C@H](CC(C)C)N(C)C(=O)[C@@H](Cc3ccc(Cc4ncccc4OC)cc3)OC(=O)[C@H](CC(C)C)N(C)C(=O)[C@@H](C)OC(=O)[C@H](CC(C)C)N(C)C2=O)cc1 [Example 3-215]	–	–	–	–	–	>3.5	3-215* (Examples with an asterisk (*) have HcL3 MED values≤1 μM)	1	0.7	<0.2	–
COc1ccc(Cc2ccc(C[C@H]3OC(=O)[C@H](CC(C)C)N(C)C(=O)[C@@H](C)OC(=O)[C@H](CC(C)C)N(C)C(=O)[C@@H](Cc4ccccc4)OC(=O)[C@H](CC(C)C)N(C)C(=O)[C@@H](C)OC(=O)[C@H](CC(C)C)N(C)C3=O)cc2)c(C)n1 [Example 4-118, (3S,6R,9S,12R,15S,18R,21S,24R)-6-benzyl-3,9,15,21-tetraisobutyl-18-(4-((6-methoxy-2-methylpyridin-3-yl)methyl)benzyl)-4,10,12,16,22,24-hexamethyl-1,7,13,19-tetraoxa-4,10,16,22-tetraazacyclotetracosan-2,5,8,11,14,17,20,23-octaone]	–	0.3	≤ 1	0.001	0.0001	10	–	–	–	–	< 1
Cc1ccc(Cc2ccc(C[C@H]3OC(=O)[C@H](CC(C)C)N(C)C(=O)[C@@H](C)OC(=O)[C@H](CC(C)C)N(C)C(=O)[C@@H](Cc4ccc(Cc5ccc(C)o5)cc4)OC(=O)[C@H](CC(C)C)N(C)C(=O)[C@@H](C)OC(=O)[C@H](CC(C)C)N(C)C3=O)cc2)o1 [Example 3-157, (3S,6R,9S,12R,15S,18R,21S,24R)-3,9,15,21-tetraisobutyl-4,6,10,16,18,22-hexamethyl-12,24-bis(4-((5-methylfuran-2-yl)methyl)benzyl)-1,7,13,19-tetraoxa-4,10,16,22-tetraazacyclotetracosan-2,5,8,11,14,17,20,23-octaone]	–	> 100	–	0.1	0.001	100	–	–	–	–	–
Cc1ccsc1Cc1ccc(C[C@H]2OC(=O)[C@H](CC(C)C)N(C)C(=O)[C@@H](C)OC(=O)[C@H](CC(C)C)N(C)C(=O)[C@@H](Cc3ccc(Cc4sccc4C)cc3)OC(=O)[C@H](CC(C)C)N(C)C(=O)[C@@H](C)OC(=O)[C@H](CC(C)C)N(C)C2=O)cc1 [Example 3-44, (3S,6R,9S,12R,15S,18R,21S,24R)-3,9,15,21-tetraisobutyl-4,6,10,16,18,22-hexamethyl-12,24-bis(4-((3-methylthiophen-2-yl)methyl)benzyl)-1,7,13,19-tetraoxa-4,10,16,22-tetraazacyclotetracosan-2,5,8,11,14,17,20,23-octaone]	1 to 3.3	1.8	–	0.1	0.0001	1000	–	–	–	–	–
CC(C)C[C@H]1C(=O)O[C@H](Cc2ccc(Cc3cocn3)cc2)C(=O)N(C)[C@@H](CC(C)C)C(=O)O[C@H](C)C(=O)N(C)[C@@H](CC(C)C)C(=O)O[C@H](Cc2ccc(Cc3cocn3)cc2)C(=O)N(C)[C@@H](CC(C)C)C(=O)O[C@H](C)C(=O)N1C [Example 3-57, (3S,6R,9S,12R,15S,18R,21S,24R)-3,9,15,21-tetraisobutyl-4,6,10,16,18,22-hexamethyl-12,24-bis(4-(oxazol-4-ylmethyl)benzyl)-1,7,13,19-tetraoxa-4,10,16,22-tetraazacyclotetracosan-2,5,8,11,14,17,20,23-octaone]	< 1	1	≤ 1	0.0003	0.0003	1	–	–	–	–	–
CC(C)C[C@H]1C(=O)O[C@H](Cc2ccc(Cc3cnccc3C(F)F)cc2)C(=O)N(C)[C@@H](CC(C)C)C(=O)O[C@H](C)C(=O)N(C)[C@@H](CC(C)C)C(=O)O[C@H](Cc2ccc(Cc3cnccc3C(F)F)cc2)C(=O)N(C)[C@@H](CC(C)C)C(=O)O[C@H](C)C(=O)N1C [Example 3-295, (3S,6R,9S,12R,15S,18R,21S,24R)-6,18-bis(4-((4-(difluoromethyl)pyridin-3-yl)methyl)benzyl)-3,9,15,21-tetraisobutyl-4,10,12,16,22,24-hexamethyl-1,7,13,19-tetraoxa-4,10,16,22-tetraazacyclotetracosan-2,5,8,11,14,17,20,23-octaone]	1 to 3.3	1.8	–	0.005	0.0003	16.7	–	–	–	–	–
CC(C)C[C@H]1C(=O)O[C@H](Cc2ccc(Cc3ccc(C(F)F)nc3)cc2)C(=O)N(C)[C@@H](CC(C)C)C(=O)O[C@H](C)C(=O)N(C)[C@@H](CC(C)C)C(=O)O[C@H](Cc2ccc(Cc3ccc(C(F)F)nc3)cc2)C(=O)N(C)[C@@H](CC(C)C)C(=O)O[C@H](C)C(=O)N1C [Example 3-287, (3S,6R,9S,12R,15S,18R,21S,24R)-6,18-bis(4-((6-(difluoromethyl)pyridin-3-yl)methyl)benzyl)-3,9,15,21-tetraisobutyl-4,10,12,16,22,24-hexamethyl-1,7,13,19-tetraoxa-4,10,16,22-tetraazacyclotetracosan-2,5,8,11,14,17,20,23-octaone]	–	> 10	–	0.05	0.0005	100	–	–	–	–	–
CC(C)C[C@H]1C(=O)O[C@H](Cc2ccc(Cc3ccnc(N4CCOCC4)c3)cc2)C(=O)N(C)[C@@H](CC(C)C)C(=O)O[C@H](C)C(=O)N(C)[C@@H](CC(C)C)C(=O)O[C@H](Cc2ccc(Cc3ccnc(N4CCOCC4)c3)cc2)C(=O)N(C)[C@@H](CC(C)C)C(=O)O[C@H](C)C(=O)N1C [Example 3-292, (3S,6R,9S,12R,15S,18R,21S,24R)-3,9,15,21-tetraisobutyl-4,6,10,16,18,22-hexamethyl-12,24-bis(4-((2-morpholinopyridin-4-yl)methyl)benzyl)-1,7,13,19-tetraoxa-4,10,16,22-tetraazacyclotetracosan-2,5,8,11,14,17,20,23-octaone]	1 to 3.3	1.8	–	0.001	0.0003	3.3	–	–	–	–	–
CC(C)C[C@H]1C(=O)O[C@H](Cc2ccc(Cc3ccoc3)cc2)C(=O)N(C)[C@@H](CC(C)C)C(=O)O[C@H](C)C(=O)N(C)[C@@H](CC(C)C)C(=O)O[C@H](Cc2ccc(Cc3ccoc3)cc2)C(=O)N(C)[C@@H](CC(C)C)C(=O)O[C@H](C)C(=O)N1C [Example 3-173, (3S,6R,9S,12R,15S,18R,21S,24R)-6,18-bis(4-(furan-3-ylmethyl)benzyl)-3,9,15,21-tetraisobutyl-4,10,12,16,22,24-hexamethyl-1,7,13,19-tetraoxa-4,10,16,22-tetraazacyclotetracosan-2,5,8,11,14,17,20,23-octaone]	1 to 3.3	3.3	–	0.003	< 0.0001	>30	–	–	–	–	–
Cc1cc(F)ncc1Cc1ccc(C[C@H]2OC(=O)[C@H](CC(C)C)N(C)C(=O)[C@@H](C)OC(=O)[C@H](CC(C)C)N(C)C(=O)[C@@H](Cc3ccc(Cc4cnc(F)cc4C)cc3)OC(=O)[C@H](CC(C)C)N(C)C(=O)[C@@H](C)OC(=O)[C@H](CC(C)C)N(C)C2=O)cc1 [Example 3-322, (3S,6R,9S,12R,15S,18R,21S,24R)-6,18-bis(4-((6-fluoro-4-methylpyridin-3-yl)methyl)benzyl)-3,9,15,21-tetraisobutyl-4,10,12,16,22,24-hexamethyl-1,7,13,19-tetraoxa-4,10,16,22-tetraazacyclotetracosan-2,5,8,11,14,17,20,23-octaone]	–	10	–	0.01	0.0003	33.3	–	–	–	–	–
CC(C)C[C@H]1C(=O)O[C@H](Cc2ccc(Cc3cnn(CCF)c3)cc2)C(=O)N(C)[C@@H](CC(C)C)C(=O)O[C@H](C)C(=O)N(C)[C@@H](CC(C)C)C(=O)O[C@H](Cc2ccc(Cc3cnn(CCF)c3)cc2)C(=O)N(C)[C@@H](CC(C)C)C(=O)O[C@H](C)C(=O)N1C [Example 3-286, (3S,6R,9S,12R,15S,18R,21S,24R)-6,18-bis(4-((1-(2-fluoroethyl)-1H-pyrazol-4-yl)methyl)benzyl)-3,9,15,21-tetraisobutyl-4,10,12,16,22,24-hexamethyl-1,7,13,19-tetraoxa-4,10,16,22-tetraazacyclotetracosan-2,5,8,11,14,17,20,23-octaone]	–	> 10	–	0.03	0.0005	60	–	–	–	–	–
